Peptide text beside a SMILES is read from it.
How the values were obtained:
[1] = system: Ad-TSHR-immunized mice; experiment: retro-orbital fibrosis by digitized image analysis of orbital sections; type: in vivo, BALB/c mice; details: 1 mg/kg IV 4-weekly, Masson's stain
Method: FIG. 6 summarizes the results of histological investigation of orbital sections. […] The sections were taken at defined distances from the mouse bregma. Interstitial connective tissue was then stained in green (Masson's trichrome stain). For clarity, both HE stained sections (left panels) and Masson's stained sections (right panels) are shown next to each other. FIG. 6B: the effects of peptide therapy on severity of retro-orbital fibrosis were evaluated in histological sections of all available animals. The measurements were carried out in Ad-TSHR-immunized mice treated by either 4-weekly injections with vehicle (0.9% NaCl, “Graves' no therapy”, n=9 mice), or administrations of 1 mg/kg body weight of peptide 836 (11 mice) or TSHR-Fc (11 mice). […] The mean total fibrosis volumes of each right and left orbita, as assessed by digitized image analysis of all sections, and consecutive integrations, are shown with SEM. […]
After euthanasia, dissection of the thyroid glands was performed under a stereomicroscope, as described before (22). […] Thyroid volumes (mm^3) were calculated from the sum of the areas of each section over the whole cutting region. Myocardial volumes (mm^3) were calculated in a similar way as described for thyroid glands from the sum of the areas of each section over whole cutting region (5 to 6 slides, depending on respective size of the hearts). […]

[2] = system: Ad-TSHR-immunized mice; experiment: qualitative histological investigation of the thyroid; type: in vivo, BALB/c mice; details: 9x AdTSHR-treated mice, 1 mg/kg IV 4-weekly
Method: After euthanasia, dissection of the thyroid glands was performed under a stereomicroscope, as described before (22). Briefly, cross cuts at the level above the larynx and below the seventh cartilage ring were made and the glands with the tracheae and oesophagi were removed from the necks. Tissue blocks were kept in 4% neutral para-formaldehyde (PFA), washed in PBS 3 times and embedded in optimum cutting temperature (OCT) formulation (Tissue-Tek® O.C.T.™ compound, VWR Chemicals, Leuven, Belgium). Consecutive 5 μm-thick cross sections were cut at a fixed distance of 500 μm using a Leica microtome CM 1850 Cryostat (temperature at −19° C.) and mounted on Thermo Polysine slides (Thermo Scientific, Cat J2800AMNZ). The collected sections represented a total distance of ˜5-6 mm, and covered the whole thyroid region of each animal. The tissue sections were then stained with hematoxylin-eosin (HE) and examined using bright field illumination on a Zeiss upright microscope. Thyroid volumes (mm^3) were calculated from the sum of the areas of each section over the whole cutting region. Myocardial volumes (mm^3) were calculated in a similar way as described for thyroid glands from the sum of the areas of each section over whole cutting region (5 to 6 slides, depending on respective size of the hearts). The method has been described before (22). […]

Molecule	retro-orbital fibrosis [1]	mean histological scores of the thyroid [2]
CC[C@H](C)[C@@H]1NC(=O)[C@H](C(C)C)NC(=O)[C@H]([C@@H](C)O)NC(=O)[C@H](CC(C)C)NC(=O)[C@H](Cc2ccc(O)cc2)NC(=O)[C@H](CCCCN)NC(=O)[C@H](CC(N)=O)NC(=O)[C@H](CCCCN)NC(=O)[C@H](CC(N)=O)NC(=O)[C@H](CC(C)C)NC(=O)[C@H](Cc2ccc(O)cc2)NC(=O)[C@H](C(C)C)NC(=O)[C@H](C)NC(=O)[C@H](CC(=O)O)NC(=O)[C@H](CC(C)C)NC(=O)[C@H](CCCCN)NC(=O)[C@H]([C@@H](C)O)NC(=O)CNC(=O)[C@H](CC(N)=O)NC(=O)[C@H](Cc2ccccc2)NC(=O)[C@H](C)NC(=O)[C@H](Cc2ccc(O)cc2)NC(=O)CNC(=O)[C@H](CC(=O)O)NC1=O [peptide 836] (cyclo(GYAFNGTKLDAVYLNKNKYLTVID))	completely reversed	–
TSHR-Fc: fusion protein: first 289 amino acids of human TSH receptor (A-subunit), GGR linker and Fc portion of human IgG2	–	markedly better compared to the vehicle-treated group
